According to article PMC11813584, “An odorant-binding protein functions in fire ant social immunity interfacing with innate immunity” (Open Biology, 2025):
“Also recorded” adds a separate entry of the source. Read-outs that look alike come from different tables or passages of the source.

Experiments:
SiOBP15 = SiOBP15 (Solenopsis invicta, UniProt F1DI94); assay: 1-NPN fluorescent binding / competition (displacement) assay, purified SiOBP15; conditions: for binding to SiOBP15 (in words): 1-NPN competition, SiOBP15 alone
Sequence of SiOBP15 (F1DI94 entry or part of it): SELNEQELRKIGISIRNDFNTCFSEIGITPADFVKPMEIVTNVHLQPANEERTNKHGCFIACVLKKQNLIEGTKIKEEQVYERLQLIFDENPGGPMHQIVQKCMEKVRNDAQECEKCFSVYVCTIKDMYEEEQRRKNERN
Procedure: (§1) The ORFs corresponding to SiOBP15, SiApoLp-III and SiFABP5 were separately cloned into the pET28a expression vector as His-tag fusion proteins. The integrity of plasmid constructs was verified by sequencing and plasmids were transformed into the Escherichia coli BL21 strain for heterologous protein expression. Proteins were purified using a nickel affinity (NI) resin (Ni-Sepharose Cl-6B agarose) according to the manufacturer’s protocol. Purified proteins were analysed by SDS–PAGE for purity and further confirmed by western blotting using an anti-His tag antibody as the probe. His-tags were removed by protease cleavage, and after determining final protein concentrations, aliquots of the purified protein samples were maintained at −80°C. Protein–protein interactions between SiOBP15 and SiApoLp-III and SiOBP15 and SiFABP5 were analysed using open surface plasmon resonance (SPR) by coupling the SiOBP15 protein (ligand) to a COOH chip until saturation. Purified SiFABP5 and SiApoLp-III proteins (analytes) were then added to analyse the kinetics of the interaction between these proteins. Binding kinetics were analysed by titration of the proteins. All experiments were performed three times with the same ‘chip’, and the entire experiment was repeated with three independent COOH-SiOBP15 chip. Dissociation constants were calculated using TraceDrawer (Ridgeview Instruments ab, Sweden) with a one-to-one interaction model.
(§2) N-phenyl-1-naphthylamine (1-NPN) was used as a probe for competition (displacement) based fluorescent binding assays as previously described. Samples were analysed using a Hitachi F-2000 fluorescence spectrophotometer at an excitation wavelength of 350 nm and an emission wavelength of 420 nm. The binding constant of the purified proteins to 1-NPN was determined over a substrate concentration range from 2 to 20 μM using 1.0 μM protein in 10 mM HEPES, 100 mM NaCl buffer, pH 7.5. Subsequent competition/displacement assays using test ligands were performed using a concentration of 2 μM 1-NPN, 2 μM protein and 2−40 μM test ligand. Dissociation constants (Kd) for 1-NPN were calculated by Scatchard plot analyses using GraphPad Prism 8 Software (GraphPad, La Jolla, CA, USA). The dissociation constants of test ligands (Kapp) in 1-NPN competition assays were calculated using the concentration of test ligand required to displace 50% of the 1-NPN signal (IC50) values using the following equation: Kapp = (IC50)/(1 + (1 − NPN)/K1 – NPN).

SiOBP15 + SiFABP5 = SiOBP15 + SiFABP5 (Solenopsis invicta, UniProt F1DI94+Z9HHL8OTK9); assay: 1-NPN fluorescent binding / competition assay, SiOBP15 co-incubated with SiFABP5; conditions: 1-NPN displacement; co-incubation of SiOBP15 with SiFABP5; read-out: Kapp, competition, SiOBP15 + SiFABP5
Sequence of SiOBP15 + SiFABP5 (F1DI94 23-162 limits assumed): as the sequence (F1DI94 entry or part of it) above
Sequence of SiOBP15 + SiFABP5 (Z9HHL8OTK9 1-133): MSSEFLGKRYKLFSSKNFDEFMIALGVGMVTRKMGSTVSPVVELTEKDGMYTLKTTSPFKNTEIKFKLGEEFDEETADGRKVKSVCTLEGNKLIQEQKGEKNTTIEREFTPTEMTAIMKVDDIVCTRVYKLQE
Procedure: as §1, with “His-tags were removed by protease cleavage, and after determining final protein concentrations, aliquots of the purified protein samples were maintained at −80°C.” left out, “Purified SiFABP5 and SiApoLp-III proteins (analytes) were then added to analyse the kinetics of the interaction between these proteins.” left out, “All experiments were performed three times with the same ‘chip’, and the entire experiment was repeated with three independent COOH-SiOBP15 chip.” left out
(§3) N-phenyl-1-naphthylamine (1-NPN) was used as a probe for competition (displacement) based fluorescent binding assays as previously described. Samples were analysed using a Hitachi F-2000 fluorescence spectrophotometer at an excitation wavelength of 350 nm and an emission wavelength of 420 nm. […]

SiFABP5 = SiFABP5 (Solenopsis invicta, UniProt Z9HHL8OTK9); assay: 1-NPN fluorescent binding / competition assay, purified SiFABP5; conditions: 1-NPN displacement; 2 μM 1-NPN, 2 μM protein; read-out: Kapp, competition, SiFABP5
Sequence of SiFABP5 (Z9HHL8OTK9 1-133): as above
Procedure: as §1, with “His-tags were removed by protease cleavage, and after determining final protein concentrations, aliquots of the purified protein samples were maintained at −80°C.” left out, “Purified SiFABP5 and SiApoLp-III proteins (analytes) were then added to analyse the kinetics of the interaction between these proteins.” left out, “All experiments were performed three times with the same ‘chip’, and the entire experiment was repeated with three independent COOH-SiOBP15 chip.” left out
as §3

SiOBP15 + SiApoLp III = SiOBP15 + SiApoLp III (Solenopsis invicta, UniProt F1DI94); assay: 1-NPN fluorescent binding / competition assay, SiOBP15 co-incubated with SiApoLp-III
Sequence of SiOBP15 + SiApoLp III (F1DI94 entry or part of it): as the sequence (F1DI94 entry or part of it) above
Sequence of SiOBP15 + SiApoLp III (Q6B972 entry or part of it, further chain): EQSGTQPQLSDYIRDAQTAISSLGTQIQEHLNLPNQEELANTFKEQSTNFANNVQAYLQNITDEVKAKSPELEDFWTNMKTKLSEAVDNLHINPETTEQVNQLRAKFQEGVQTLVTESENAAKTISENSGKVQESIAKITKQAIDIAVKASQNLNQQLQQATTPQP
Procedure: as §1, §2

S. invicta workers = assay: Dismemberment behavioural assay; format: in vivo, Solenopsis invicta; conditions: for dismemberment behaviour towards freeze-killed ants treated with the compound: healthy / untreated and GFP-RNAi workers, compared to freeze-killed control ants; for effect on behaviour: corpse-dismemberment of freeze-killed conspecifics treated with the chemical; for corpse dismemberment, RNAi targeting SiOBP15 + SiApoLp-III: dual RNAi; for corpse dismemberment, RNAi targeting SiOBP15 + SiApoLp-III / corpse dismemberment, RNAi targeting SiApoLp-III / corpse dismemberment, RNAi targeting SiFABP5 / corpse dismemberment, RNAi targeting SiOBP15 / corpse dismemberment, GFP RNAi (control) workers: freeze-killed corpses + chemical; for corpse dismemberment, RNAi targeting SiOBP15 + SiApoLp-III / corpse dismemberment, RNAi targeting SiApoLp-III / corpse dismemberment, RNAi targeting SiFABP5 / corpse dismemberment, RNAi targeting SiOBP15: compared to freeze-killed workers treated with the same chemical; for corpse dismemberment, GFP RNAi (control) workers: compared to freeze-killed, no additions
Procedure: Fresh corpses of workers killed by either rapid immersion in liquid nitrogen were collected and maintained at −80°C until use. Infection was performed by immersing workers for 5 s in 1 × 10^8 suspensions of fungal conidia. Infected workers were kept in isolated boxes until mortality (3–4 days) and were then used immediately for dismemberment assays. Each technical replicate of a dismemberment assay used five workers selected from different treatment groups (i.e. killed by freezing, killed by B. bassiana or subjected to another treatment as indicated). Of the five ‘killed’ workers, […] near the edge of the container in a ‘+’ pattern of a plastic container (9 cm diameter) and one in the centre. To each container was added 15 healthy workers or 15 workers treated as described below (e.g. RNAi treated). Containers contained an Eppendorf tube with a sterile solution of 5% sucrose. Corpse-dismemberment behaviour was assessed every 12 h for three consecutive days, and corpse limbs or other parts that were dismembered were counted. The corpse-dismemberment percentage was calculated by dividing the total number of dismembered parts (5 corpses × 10 body parts/each cage/3 days). Each experiment contained three technical replicates, and the entire experiment was repeated at least three times.
The specific dsRNA primers used in this study were synthesized using an in vitro transcription T7 kit (TAKARA, Dalian, China; electronic supplementary material, table S1). dsRNA concentrations were measured using a NanoVue Plus spectrophotometer (GE Healthcare Life Sciences, Little Chalfont, UK). In total, 50 nl of dsRNA of either the target genes or DsRNA-GFP (control) at indicated concentrations (up to 3000 ng μl^−1) were injected into each worker. Dismemberment assays were performed as above with three technical replicates, and each experiment was repeated at least three times using three different batches of ants. RNAi efficiencies was analysed by qRT-PCR.

[1] = 1-NPN displacement; co-incubation of SiOBP15 with SiApoLp-III; read-out: Kapp, competition, SiOBP15 + SiApoLp III
[2] = read-out: Kapp, competition, SiOBP15 + SiApoLp III; 1-NPN displacement; co-incubation of SiOBP15 with SiApoLp-III
[3] = 1-NPN displacement, 2 μM 1-NPN, 2 μM protein, 2-40 μM test ligand, read-out: Kapp, competition, SiOBP15

Row | binding to SiOBP15 (in words) (SiOBP15) | binding to SiOBP15 incubated with SiApoLp-III (in words) (SiOBP15 + SiApoLp III; 1-NPN competition, complex) | Ki (SiOBP15 + SiApoLp III; [1]) | Ki (SiOBP15; [3]) | Compound | dismemberment behaviour towards freeze-killed ants treated with the compound (S. invicta workers) | corpse dismemberment, RNAi targeting SiOBP15 + SiApoLp-III (S. invicta workers) | corpse dismemberment, RNAi targeting SiApoLp-III (S. invicta workers) | corpse dismemberment, RNAi targeting SiFABP5 (S. invicta workers) | corpse dismemberment, RNAi targeting SiOBP15 (S. invicta workers) | corpse dismemberment, GFP RNAi (control) workers (S. invicta workers) | other results
1 | able to bind |  |  |  | 3-octenol |  |  |  |  |  |  | Ki (SiOBP15 + SiFABP5): 12.6 µM; Ki (SiFABP5): 15.7 µM
2 | binds | limited binding | 70.9 µM |  | CC(=O)C(C)=O [2,3 butanedione] | No significant effects |  |  |  |  |  | 
3 |  |  | > 500 µM | 15.2 µM | CCCCC=CCCO [3-octenol] |  |  |  |  |  |  | 
4 | binds | limited binding | 83.3 µM | 26.5 µM | CC(=O)C(C)O (stereo not shown) [acetoin] | No significant effects |  |  |  |  |  | 
5 | able to bind | did not show binding | > 500 µM | 25.8 µM | CCCCC/C=C\C/C=C\CCCCCCCC(=O)O [linoleic acid, cis,cis-9,12-linoleic acid] | significantly reduced | increased^c | no change^c | increased^c | increased^c | decreased^a | effect on behaviour (S. invicta workers): inhibits dismemberment; dismemberment behaviour towards freeze-killed ants treated with the compound (S. invicta workers; listed as cis, cis-9,12-linoleic acid): inhibit this behaviour; dismemberment behaviour towards freeze-killed ants treated with the compound (S. invicta workers; listed as cis,cis-9,12-linoleic acid): significant decrease
6 | No binding |  | > 500 µM | > 500 µM | CCCCCCCC/C=C/CCCCCCCCCC(=O)O [trans-11-eicosenoic acid] | No significant effects; also recorded: did not alter dismemberment behaviour | no change^e | no change^e | no change^e | no change^e | no change^a | 

Second part, the compound before the results:

Row | Compound | binding to SiOBP15 (in words) (SiOBP15) | binding to SiOBP15 incubated with SiApoLp-III (in words) (SiOBP15 + SiApoLp III; 1-NPN competition, complex) | Ki (SiOBP15 + SiApoLp III; [1]) | Ki (SiOBP15; [3]) | dismemberment behaviour towards freeze-killed ants treated with the compound (S. invicta workers) | corpse dismemberment, RNAi targeting SiOBP15 + SiApoLp-III (S. invicta workers) | corpse dismemberment, RNAi targeting SiApoLp-III (S. invicta workers) | corpse dismemberment, RNAi targeting SiFABP5 (S. invicta workers) | corpse dismemberment, RNAi targeting SiOBP15 (S. invicta workers) | corpse dismemberment, GFP RNAi (control) workers (S. invicta workers) | other results
7 | c1ccc(Nc2cccc3ccccc23)cc1 [1-NPN, N-phenyl-1-naphthylamine, reference compound] |  |  |  |  |  |  |  |  |  |  | Kd (SiOBP15; Kd of 1-NPN to SiOBP15 (printed in figure 2C), SiOBP15+NPN, unit inferred): 16.9 µM; Kd (SiOBP15; Kd of 1-NPN to SiOBP15, Scatchard analysis, 1.0 μM protein, 2 to 20 μM 1-NPN): 16.9 µM; Kd (SiOBP15 + SiApoLp III; read-out: dissociation constant of 1-NPN to SiOBP15 + SiApoLp-III; co-incubation; modelled to single 1-NPN binding sites): 18.2 µM
8 | CC1CCOC1=O (stereo not shown) [3-methyltetrahydro-2-furanone] |  |  |  |  | No significant effects |  |  |  |  |  | Ki (SiOBP15): 16 µM; Ki (SiOBP15 + SiApoLp III; [2]): 57.2 µM
9 | CCCCCCCCCCCCCCCCCCCCCC(=O)O [behenic acid] |  |  |  |  | significant increase; also recorded: induced dismemberment behaviour; also recorded: induces corpse-dismemberment | decreased^b | decreased^b | no change^b | slight decrease^b | increased^a | Ki (SiOBP15): 14 µM; Ki (SiOBP15 + SiApoLp III; [2]): 19.3 µM; effect on behaviour (S. invicta workers): induces dismemberment
10 | C=CC(=C)CCC=C(C)C [myrcene] |  |  |  |  | No significant effects |  |  |  |  |  | 
11 | CCCCCCCC/C=C\CCCCCCCC(=O)O [oleic acid] | able to bind | did not show binding |  |  | significant decrease; also recorded: reduced dismemberment behaviour; also recorded: inhibit this behaviour | no change^d | no change^d | no change^d | no change^d | decreased^a | Ki (SiOBP15): 15.5 µM; Ki (SiOBP15 + SiApoLp III; [2]): > 500 µM; effect on behaviour (S. invicta workers): inhibits dismemberment
12 | CCCCCCCCCCC/C=C/CCCCC(=O)O [trans-6-octadecenoic acid] |  |  |  |  | No significant effects |  |  |  |  |  | 
